Converted amounts (≈) assume the structure as drawn.
Tests used:
[1] = system: Bacteroides fragilis sp. thetaiotaomicron 1900A; assay: Agar dilution susceptibility of anaerobic bacteria (Chart 1); assay type: cell-based; settings: Bacteroides fragilis, 24 h, agar dilution, 37° C.; Bacteroides fragilis sp. thetaiotaomicron 1900A; read-out: 24 Hr. MIC
[2] = system: Bacteroides fragilis sp. fragilis 104; assay: as above; assay type: cell-based; settings: 24 h; agar dilution, 37° C.; Bacteroides fragilis sp. fragilis 104; read-out: 24 Hr. MIC
[3] = system: Clostridium perfringens 81; assay: microbe, parasite or virus in culture; assay type: cell-based
[4] = system: Bacteroides fragilis sp. fragilis 107; assay: Agar dilution susceptibility of anaerobic bacteria (Chart 1); assay type: cell-based; settings: Bacteroides fragilis, 24 h, agar dilution, 37° C.; Bacteroides fragilis sp. fragilis 107; read-out: 24 Hr. MIC
[5] = system: Bacteroides fragilis sp. fragilis 1470; assay: as above; assay type: cell-based; settings: Bacteroides fragilis, 24 h, agar dilution, 37° C.; Bacteroides fragilis sp. fragilis 1470; read-out: 24 Hr. MIC
[6] = system: Bacteroides fragilis sp. vulgatis 1563; assay: as above; assay type: cell-based; settings: agar dilution, 37° C., Bacteroides fragilis sp. vulgatis 1563
[7] = system: Bacteroides fragilis sp. fragilis 110; assay: as above; assay type: cell-based; settings: Bacteroides fragilis, 24 h, agar dilution, 37° C.; Bacteroides fragilis sp. fragilis 110; read-out: 24 Hr. MIC
[8] = system: Bacteroides fragilis sp. fragilis 113; assay: as above; assay type: cell-based; settings: Bacteroides fragilis, 24 h, agar dilution, 37° C.; Bacteroides fragilis sp. fragilis 113; read-out: 24 Hr. MIC
[9] = system: Fusobacterium symbiosum 1470; assay: as above; assay type: cell-based; settings: Fusobacterium, 1470, 24 h, agar dilution, 37° C.; Fusobacterium symbiosum 1470; read-out: 24 Hr. MIC
[10] = system: Peptostreptococcus anaerobius 1428; assay: as above; assay type: cell-based; settings: Peptostreptococcus anaerobius, 1428, 24 h, agar dilution, 37° C.; Peptostreptococcus anaerobius 1428; read-out: 24 Hr. MIC
[11] = system: Bacteroides vulgatis 1211; assay: as above; assay type: cell-based; settings: agar dilution, 37° C., Bacteroides vulgatis 1211
[12] = system: Bacteroides fragilis sp. fragilis 1936B; assay: as above; assay type: cell-based; settings: agar dilution, 37° C., Bacteroides fragilis sp. fragilis 1936B
[13] = system: Bacteroides fragilis sp. fragilis 2; assay: as above; assay type: cell-based; settings: Bacteroides fragilis, 24 h, agar dilution, 37° C.; Bacteroides fragilis sp. fragilis 2; read-out: 24 Hr. MIC
[14] = system: Bacteroides fragilis sp. fragilis 1451; assay: as above; assay type: cell-based; settings: Bacteroides fragilis, 24 h, agar dilution, 37° C.; Bacteroides fragilis sp. fragilis 1451; read-out: 24 Hr. MIC
Peptococcus prevoti 1281 = assay: as above; assay type: cell-based
[15] = system: Peptococcus asaccharolyticus 1302; assay: as above; assay type: cell-based; settings: agar dilution, 37° C.; Peptococcus asaccharolyticus 1302
[16] = system: Propionibacterium acnes 79; assay: as above; assay type: cell-based; settings: Cutibacterium acnes, 79, 24 h, agar dilution, 37° C.; Propionibacterium acnes 79; read-out: 24 Hr. MIC
[17] = system: Actinomyces israelii W855; assay: as above; assay type: cell-based; settings: 24 h, agar dilution, 37° C., read-out: 24 Hr. MIC
[18] = system: Bacteroides fragilis sp. fragilis 111; assay: as above; assay type: cell-based; settings: Bacteroides fragilis, 24 h, agar dilution, 37° C.; Bacteroides fragilis sp. fragilis 111; read-out: 24 Hr. MIC
[19] = system: Bacteroides fragilis sp. fragilis 108; assay: as above; assay type: cell-based; settings: Bacteroides fragilis, 24 h, agar dilution, 37° C.; Bacteroides fragilis sp. fragilis 108; read-out: 24 Hr. MIC
Salmonella typhimurium = assay: Control of infections caused by Salmonella typhimurium in chickens (Chart 2); assay type: in vivo; settings: 60 mg./kg. subcutaneous, day-old chicks, 5 per group, 6 days observation
Protocol: The efficacy of the novel compounds in the control of infections caused by Salmonella typhimurium in chickens was evaluated in the following manner. The test was carried out using day-old chicks weighing approximately 35 g. each. The chicks were divided into groups of 5 chicks per each dosage level. A portion of the chicks received the test compound which was suspended in 0.2 ml. of polyethylene glycol 200 and administered subcutaneously in the neck. […] All the chicks were challenged with a 1:200 dilution of a culture of the organism, 0.1 ml. of the dilution being injected into each chick in the leg intramuscularly. […] The test compounds are identified in the same manner as set forth in experiment 1. In the chart, column 1 lists the compounds tested; column 2, the dosage of test compound in mg./kg.; and column 3, the survival ratio.

[20] = system: Bacteroides fragilis sp. fragilis 62; assay: Agar dilution susceptibility of anaerobic bacteria (Chart 1); assay type: cell-based; settings: agar dilution, 37° C., Bacteroides fragilis sp. fragilis 62
[21] = system: Bacteroides fragilis sp. fragilis 103; assay: as above; assay type: cell-based; settings: agar dilution, 37° C., Bacteroides fragilis sp. fragilis 103
[22] = system: Fusobacterium necrophorum 6054A; assay: as above; assay type: cell-based; settings: Fusobacterium necrophorum, 6054A, 24 h, agar dilution, 37° C.; Fusobacterium necrophorum 6054A; read-out: 24 Hr. MIC
[23] = system: Eubacterium aerofaciens 1235; assay: as above; assay type: cell-based; settings: agar dilution, 37° C., Eubacterium aerofaciens 1235
[24] = Bacteroides fragilis, 24 h, read-out: 24 Hr. MIC

| Structure (SMILES) | MIC [1] [µg/mL] | MIC [2] [µg/mL] | MIC [4] [µg/mL] | MIC [5] [µg/mL] | MIC [7] [µg/mL] | MIC [8] [µg/mL] | MIC [9] [µg/mL] | MIC [10] [µg/mL] | MIC [13] [µg/mL] | MIC [14] [µg/mL] | 24 Hr. MIC [15] [µg/mL] | MIC [16] [µg/mL] | MIC [17] [µg/mL] | MIC [18] [µg/mL] | MIC [19] [µg/mL] | Survival Ratio (Salmonella typhimurium) | MIC [22] [µg/mL] | other results |
| --- | --- | --- | --- | --- | --- | --- | --- | --- | --- | --- | --- | --- | --- | --- | --- | --- | --- | --- |
| CCOC(=O)C(=O)Nc1c(C#N)c(-c2ncc([N+](=O)[O-])n2C)nn1C [Example 1, N-[4-Cyano-1-methyl-3-(1-methyl-5-nitroimidazol-2-yl)pyrazol-5-yl]oxamic acid, ethyl ester] | 0.25 (≈ 0.72 µM) | 0.25 (≈ 0.72 µM) | 0.25 (≈ 0.72 µM) | 0.125 (≈ 0.36 µM) | 0.25 (≈ 0.72 µM) | 0.25 (≈ 0.72 µM) | ≤ 0.25 | ≤ 0.25 | 0.25 (≈ 0.72 µM) | 0.25 (≈ 0.72 µM) | 1.0 | 32 (≈ 92.1 µM) | > 64 | 0.125 (≈ 0.36 µM) | 0.125 (≈ 0.36 µM) | 4/5 | ≤ 0.25 | MIC ([3]; Clostridium perfringens, 81, 24 h, read-out: 24 Hr. MIC, agar dilution, 37° C.): 0.5 µg/mL (≈ 1.44 µM); 24 Hr. MIC [6]: 0.125 µg/mL; MIC ([11]; Bacteroides, 1211, 24 h, read-out: 24 Hr. MIC): ≤ 0.25 µg/mL; MIC [12, 24]: ≤ 0.25 µg/mL; MIC (Peptococcus prevoti 1281; 24 h, read-out: 24 Hr. MIC, agar dilution, 37° C.): ≤ 0.25 µg/mL; 24 Hr. MIC [20]: 0.25 µg/mL; 24 Hr. MIC [21]: ≤ 0.03 µg/mL; MIC ([23]; Collinsella aerofaciens, 1235, 24 h, read-out: 24 Hr. MIC): 0.5 µg/mL (≈ 1.44 µM) |
| Cn1nc(-c2ncc([N+](=O)[O-])n2C)c(C#N)c1NC(=O)C(=O)NN [Example 6, 5-[4-Cyano-1-methyl-3-(1-methyl-5-nitroimidazol-2-yl)pyrazol5-yl]semioxamazide] | 0.25 (≈ 0.75 µM) | 0.25 (≈ 0.75 µM) | 0.5 (≈ 1.5 µM) | 0.25 (≈ 0.75 µM) | 0.5 (≈ 1.5 µM) | 0.25 (≈ 0.75 µM) | ≤ 0.25 | ≤ 0.25 | 0.25 (≈ 0.75 µM) | 0.5 (≈ 1.5 µM) | ≤ 0.25 | 32 (≈ 96 µM) | > 64 | 0.25 (≈ 0.75 µM) | 0.5 (≈ 1.5 µM) | 5/5 | ≤ 0.25 | 24 Hr. MIC ([3]; agar dilution, 37° C.): 0.5 µg/mL; MIC [6, 24]: 0.125 µg/mL (≈ 0.375 µM); 24 Hr. MIC [11]: ≤ 0.25 µg/mL; 24 Hr. MIC [12]: ≤ 0.25 µg/mL; 24 Hr. MIC (Peptococcus prevoti 1281; agar dilution, 37° C.): 0.5 µg/mL; MIC [20, 24]: 0.5 µg/mL (≈ 1.5 µM); MIC [21, 24]: 0.06 µg/mL (≈ 0.18 µM); 24 Hr. MIC [23]: 0.5 µg/mL |

Reference: patent publication US4029671A, “3-[(5-nitro-2-imidazolyl)pyrazol-5-yl]oxamic acid derivatives” (priority 1976, dated 1977)
